From publication PMC2893567 (Macromolecular bioscience, 2010)

Target: cholera toxin B5 subunit (CT B5) (Vibrio cholerae serotype O1, UniProt P01556)
Assay: biochemical
Format: binding

cholera toxin B5 subunit (CT B5), sequence (P01556 22-124 limits assumed): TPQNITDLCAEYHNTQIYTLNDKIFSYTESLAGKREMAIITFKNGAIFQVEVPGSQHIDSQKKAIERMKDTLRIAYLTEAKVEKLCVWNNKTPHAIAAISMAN

Compound: O=C[C@H](O)[C@@H](O)[C@@H](O)[C@H](O)CO [Galactose]
- Improvement over galactose: 1
- IC50 (IC50 (saccharide concentration)): 30 to 45 mM

Compound: XGAGAGPSGAGAGPSGAGAGPSGAGAGPSGAGAGPXGGGG [35-RCG-2]
- Non-specific binding of unmodified peptide: less than 20%

Compound: XGAKAKPKGAKAKPKGAKAKPKGAKAKPKGAKAKPXGGGG [35-RCK-2]
- Non-specific binding of unmodified peptide: less than 20%
